Read-outs that look alike come from different tables or passages of the source.
Key:
CDK9/CycT1 = target: T1, CDK9/CycT1 (Homo sapiens, UniProt P50750); experiment: CDK9/CycT1 high ATP kinase assay (TR-FRET, 2 mM ATP); assay type: biochemical; conditions: for IC50: 2 mM ATP, Method 1b, lower limit for IC50s about 1-2 nM; for Selectivity high ATP CDK9 over high ATP CDK2: IC50 (high ATP CDK2)/IC50 (high ATP CDK9): ratio from Methods 1b and 2b, minimal values for IC50s near the assay limit
T1 construct: Recombinant full-length His-tagged human CDK9 and CycT1; His; purchased Life Technologies PV4131; host or cells: insect cells
T1 sequence (P50750 whole entry): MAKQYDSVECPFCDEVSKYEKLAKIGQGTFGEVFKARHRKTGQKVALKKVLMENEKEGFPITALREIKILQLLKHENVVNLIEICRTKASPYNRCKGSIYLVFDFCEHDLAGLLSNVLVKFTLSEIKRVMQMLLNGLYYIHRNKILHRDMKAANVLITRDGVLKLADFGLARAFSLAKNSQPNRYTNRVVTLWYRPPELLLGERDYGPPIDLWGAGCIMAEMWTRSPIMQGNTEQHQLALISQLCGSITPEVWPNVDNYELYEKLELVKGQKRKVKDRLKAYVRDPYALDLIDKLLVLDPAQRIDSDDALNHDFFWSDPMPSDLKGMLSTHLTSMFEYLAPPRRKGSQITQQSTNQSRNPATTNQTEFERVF
T1 sequence (O60563 whole entry partner): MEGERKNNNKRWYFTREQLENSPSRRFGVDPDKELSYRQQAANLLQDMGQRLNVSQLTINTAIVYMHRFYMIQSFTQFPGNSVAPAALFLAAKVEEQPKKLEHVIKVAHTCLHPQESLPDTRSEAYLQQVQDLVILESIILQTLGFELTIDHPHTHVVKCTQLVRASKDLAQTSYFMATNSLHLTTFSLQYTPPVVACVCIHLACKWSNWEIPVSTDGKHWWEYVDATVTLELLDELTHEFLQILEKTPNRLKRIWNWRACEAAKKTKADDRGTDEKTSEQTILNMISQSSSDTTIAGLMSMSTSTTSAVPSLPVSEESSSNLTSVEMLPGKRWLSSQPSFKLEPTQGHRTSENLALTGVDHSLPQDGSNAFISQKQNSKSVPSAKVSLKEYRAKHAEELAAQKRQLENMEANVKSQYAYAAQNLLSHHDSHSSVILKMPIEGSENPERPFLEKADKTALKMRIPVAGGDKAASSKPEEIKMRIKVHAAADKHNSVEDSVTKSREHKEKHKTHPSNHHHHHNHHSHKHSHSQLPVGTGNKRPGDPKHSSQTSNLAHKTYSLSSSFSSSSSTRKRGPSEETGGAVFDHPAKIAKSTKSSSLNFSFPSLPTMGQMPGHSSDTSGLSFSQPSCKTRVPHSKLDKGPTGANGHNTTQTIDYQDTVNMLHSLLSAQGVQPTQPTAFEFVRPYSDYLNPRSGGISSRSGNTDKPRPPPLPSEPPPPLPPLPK
Description: 1b. CDK9/CycT1 High ATP Kinase Assay
CDK9/CycT1-inhibitory activity of compounds of the present invention at a high ATP concentration after preincubation of enzyme and test compounds was quantified employing the CDK9/CycT1 TR-FRET assay as described in the following paragraphs.
Recombinant full-length His-tagged human CDK9 and CycT1, expressed in insect cells and purified by Ni-NTA affinity chromatography, were purchased from Life Technologies (Cat. No PV4131). As substrate for the kinase reaction biotinylated peptide biotin-Ttds-YISPLKSPYKISEG (C-terminus in amide form) was used which can be purchased e.g. form the company JERINI peptide technologies (Berlin, Germany).
(§1) For the assay 50 nl of a 100 fold concentrated solution of the test compound in DMSO was pipetted into either a black low volume 384 well microtiter plate or a black 1536 well microtiter plate (both Greiner Bio-One, Frickenhausen, Germany), 2 μl of a solution of CDK9/CycT1 in aqueous assay buffer [50 mM Tris/HCl pH 8.0, 10 mM MgCl2, 1.0 mM dithiothreitol, 0.1 mM sodium ortho-vanadate, 0.01% (v/v) Nonidet-P40 (Sigma)] were added and the mixture was incubated for 15 min at 22° C. to allow pre-binding of the test compounds to the enzyme before the start of the kinase reaction. […] The concentration of CDK9/CycT1 was adjusted depending of the activity of the enzyme lot and was chosen appropriate to have the assay in the linear range, typical concentrations were in the range of 0.5 μg/ml. The reaction was stopped by the addition of 3 μl of a solution of TR-FRET detection reagents (0.33 μM streptavidine-XL665 [Cisbio Bioassays, Codolet, France] and 1.67 nM anti-RB(pSer807/pSer811)-antibody from BD Pharmingen [#558389] and 2 nM LANCE EU-W1024 labeled anti-mouse IgG antibody [Perkin-Elmer, product no. AD0077]) in an aqueous EDTA-solution (167 mM EDTA, 0.2% (w/v) bovine serum albumin in 100 mM HEPES pH 7.5).
(§2) The resulting mixture was incubated 1 h at 22° C. to allow the formation of complex between the phosphorylated biotinylated peptide and the detection reagents. Subsequently the amount of phosphorylated substrate was evaluated by measurement of the resonance energy transfer from the Eu-chelate to the streptavidine-XL. Therefore, the fluorescence emissions at 620 nm and 665 nm after excitation at 350 nm was measured in a TR-FRET reader, e.g. a Pherastar (BMG Labtechnologies, Offenburg, Germany) or a Viewlux (Perkin-Elmer). The ratio of the emissions at 665 nm and at […] was taken as the measure for the amount of phosphorylated substrate. The data were normalised (enzyme reaction without inhibitor=0% inhibition, all other assay components but no enzyme=100% inhibition).

CDK2/CycE = target: T2, CDK2/CycE (Homo sapiens, UniProt P24941); experiment: CDK2/CycE high ATP kinase assay (TR-FRET, 2 mM ATP); assay type: biochemical; conditions: Method 2b
T2 construct: GST; purchased ProQinase GmbH (Freiburg, Germany); host or cells: insect cells (Sf9)
Description: 2b. CDK2/CycE High ATP Kinase Assay
CDK2/CycE-inhibitory activity of compounds of the present invention at 2 mM adenosine-tri-phosphate (ATP) was quantified employing the CDK2/CycE TR-FRET (TR-FRET=Time Resolved Fluorescence Energy Transfer) assay as described in the following paragraphs.
Recombinant fusion proteins of GST and human CDK2 and of GST and human CycE, expressed in insect cells (Sf9) and purified by Glutathion-Sepharose affinity chromatography, were purchase from ProQinase GmbH (Freiburg, Germany). As substrate for the kinase reaction biotinylated peptide biotin-Ttds-YISPLKSPYKISEG (C-terminus in amid form) was used which can be purchased e.g. form the company JERINI peptide technologies (Berlin, Germany).
as §1, with “CDK2/CycE” for “CDK9/CycT1”, “about 10 ng/ml.” for “in the range of 0.5 μg/ml.”, “(0.333” for “(0.33”, “AD0077, as an alternative a Terbium-cryptate-labeled anti-mouse IgG antibody from Cisbio Bioassays can be used])” for “AD0077])”
as §2

A2780 cells = experiment: Proliferation assay, A2780; assay type: cell-based, human; conditions: 72-hour exposure, Cell Titre-Glo, read-out: Inhibition of A2780 cell proliferation IC50
Description: Cultivated tumour cells (HeLa, human cervical tumour cells, ATCC CCL-2; NCI-H460, human non-small cell lung carcinoma cells, ATCC HTB-177; DU 145, hormone-independent human prostate carcinoma cells, ATCC HTB-81; HeLa-MaTu-ADR, multidrug-resistant human cervical carcinoma cells, EPO-GmbH Berlin; Caco-2, human colorectal carcinoma cells, ATCC HTB-37; B16F10, mouse melanoma cells, ATCC CRL-6475) were plated at a density of 5,000 cells/well (DU145, HeLa-MaTu-ADR), 3,000 cells/well (NCI-H460, HeLa), 1,500 cells/well (Caco-2), or 1,000 cells/well (B16F10) in a 96-well multititer plate in 200 μL of their respective growth medium supplemented 10% fetal calf serum. After 24 hours, the cells of one plate (zero-point plate) were stained with crystal violet (see below), while the medium of the other plates was supplemented with the test substances in various concentrations (0 μM, as well as in the range of 0.0001-10 μM; the final concentration of the solvent dimethyl sulfoxide was adjusted to 0.1%) using a Hewlett-Packard HP D300 Digital Dispenser. The cells were incubated for 4 days in the presence of test substances. Cell proliferation was determined by staining the cells with crystal violet: the cells were fixed by adding 20 μl/measuring point of an 11% glutaric aldehyde solution for 15 minutes at room temperature. After three washing cycles of the fixed cells with water, the plates were dried at room temperature. The cells were stained by adding 100 μl/measuring point of a 0.1% crystal violet solution (pH 3.0). After three washing cycles of the stained cells with water, the plates were dried at room temperature. The dye was dissolved by adding 100 μl/measuring point of a 10% acetic acid solution. The extinction was determined by photometry at a wavelength of 595 nm. The change of cell number, in percent, was calculated by normalization of the measured values to the extinction values of the zero-point plate (=0%) and the extinction of the untreated ([…]) cells (=100%). The IC50 values (inhibitory concentration at 50% of maximal effect) were determined by means of a 4 parameter fit. A2780 human ovarian carcinoma cells (ECACC #93112519) and non-adherent MOLM-13 human acute myeloid leukemia cells (DSMZ ACC 554) were seeded at a density of 3,000 cell/well (A2780) or 5,000 cells/well (MOLM-13) in a 96-well multititer plate in 150 μL of growth medium supplemented 10% fetal calf serum. After 24 hours, cell viability of one plate (zero-point plate) was determined with the Cell Titre-Glo Luminescent Cell Viability Assay (Promega), while the medium of the other plates was supplemented with the test substances in various concentrations (0 μM, as well as in the range of 0.0001-10 μM; the final concentration of the solvent dimethyl sulfoxide was adjusted to 0.1%) using a Hewlett-Packard HP D300 Digital Dispenser. Cell viability was assessed after 72-hour exposure with the Cell Titre-Glo Luminescent Cell Viability Assay (Promega). IC50 values (inhibitory concentration at 50% of maximal effect) were determined by means of a 4 parameter fit on measurement data which were normalized to vehicle (DMSO) treated cells (=100%) and measurement readings taken immediately before compound exposure (=0%).

Compound | IC50 (CDK9/CycT1) [µM] | Selectivity high ATP CDK9 over high ATP CDK2: IC50 (high ATP CDK2)/IC50 (high ATP CDK9) (CDK9/CycT1) | IC50 (CDK2/CycE) [µM] | IC50 (A2780 cells; Homo sapiens, A2780, 72 h) [µM] | IC50 (A2780 cells) [µM]
CSCc1cc2nc(c1)OC(C)CCCOc1cc(ccc1F)-c1cc(ncc1F)N2 (racemic) [Example 11, (rac)-3,20-difluoro-14-methyl-10-[(methylsulfanyl)methyl]-13,18-dioxa-5,7,24-triazatetracyclo[17.3.1.1^2,6.1^8,12]pentacosa-1(23),2(25),3,5,8(24),9,11,19,21-nonaene] | 0.007 | 667 | 4.67 | 0.346 | –
CC1CCCCCOc2cc(ccc2F)-c2cc(ncc2F)Nc2cc(CS(C)(=N)=O)cc(n2)O1 (single isomer, unassigned) [Example 26, 3,22-difluoro-14-methyl-10-[(S-methylsulfonimidoyl)methyl]-13,20-dioxa-5,7,26-triazatetracyclo[19.3.1.1^2,6.1^8,12]heptacosa-1(25),2(27),3,5,8(26),9,11,21,23-nonaene] | 0.004 | 3250 | 13 | 0.053 | –
CC1CCCCCOc2cc(ccc2F)-c2cc(ncc2F)Nc2cc(CS(C)(=N)=O)cc(n2)O1 (single isomer, unassigned) [Example 27, 3,22-difluoro-14-methyl-10-[(S-methylsulfonimidoyl)methyl]-13,20-dioxa-5,7,26-triazatetracyclo[19.3.1.1^2,6.1^8,12]heptacosa-1(25),2(27),3,5,8(26),9,11,21,23-nonaene] | 0.005 | 544 | 2.72 | – | 0.102
CC1CCCCOc2cc(ccc2F)-c2cc(ncc2F)Nc2cc(CS(C)(=O)=O)cc(n2)O1 (single isomer, unassigned) [Example 29, 3,21-difluoro-14-methyl-10-[(methylsulfonyl)methyl]-13,19-dioxa-5,7,25-triazatetracyclo[18.3.1.1^2,6.1^8,12]hexacosa-1(24),2(26),3,5,8(25),9,11,20,22-nonaene] | 0.004 | 173 | 0.691 | – | 0.025
CC1CCCCOc2cc(ccc2F)-c2cc(ncc2F)Nc2cc(CS(C)(=O)=O)cc(n2)O1 (single isomer, unassigned) [Example 30, 3,21-difluoro-14-methyl-10-[(methylsulfonyl)methyl]-13,19-dioxa-5,7,25-triazatetracyclo[18.3.1.1^2,6.1^8,12]hexacosa-1(24),2(26),3,5,8(25),9,11,20,22-nonaene] | 0.003 | 1196 | 3.59 | – | 0.055

Now from value to compound:

IC50 (CDK9/CycT1) [µM] | Selectivity high ATP CDK9 over high ATP CDK2: IC50 (high ATP CDK2)/IC50 (high ATP CDK9) (CDK9/CycT1) | IC50 (CDK2/CycE) [µM] | IC50 (A2780 cells; Homo sapiens, A2780, 72 h) [µM] | IC50 (A2780 cells) [µM] | Compound
0.003 | 503 | 1.51 | – | 0.023 | CC1CCCOc2cc(ccc2F)-c2cc(ncc2F)Nc2cc(CS(C)(=N)=O)cc(n2)O1 (single isomer, unassigned) [Example 14, 3,20-difluoro-14-methyl-10-[(S-methylsulfonimidoyl)methyl]-13,18-dioxa-5,7,24-triazatetracyclo[17.3.1.1^2,6.1^8,12]pentacosa-1(23),2(25),3,5,8(24),9,11,19,21-nonaene]
0.003 | 540 | 1.62 | – | 0.016 | CC1CCCOc2cc(ccc2F)-c2cc(ncc2F)Nc2cc(CS(C)(=N)=O)cc(n2)O1 (single isomer, unassigned) [Example 15, 3,20-difluoro-14-methyl-10-[(S-methylsulfonimidoyl)methyl]-13,18-dioxa-5,7,24-triazatetracyclo[17.3.1.1^2,6.1^8,12]pentacosa-1(23),2(25),3,5,8(24),9,11,19,21-nonaene]
